Data reported in ChEMBL document CHEMBL4507295 (2021).

Key:
[1] = biological target: Activin receptor type-2B (Homo sapiens) (UniProt Q13705); conditions: Compound concentration 1000.0 nM
[2] = system: ALK tyrosine kinase receptor (Homo sapiens), Q9UM73 [C1156Y]; conditions: Compound concentration 1000.0 nM
[3] = biological target: Mitogen-activated protein kinase kinase kinase 6 (Homo sapiens) (UniProt O95382); conditions: Compound concentration 1000.0 nM
[4] = biological target: Calcium/calmodulin-dependent protein kinase type 1B (Homo sapiens) (UniProt Q6P2M8); conditions: Compound concentration 1000.0 nM
[5] = biological target: Calcium/calmodulin-dependent protein kinase type II subunit gamma (Homo sapiens) (UniProt Q13555); conditions: Compound concentration 1000.0 nM
[6] = biological target: Calcium/calmodulin-dependent protein kinase kinase 2 (Homo sapiens) (UniProt Q96RR4); conditions: Compound concentration 1000.0 nM
[7] = biological target: Cyclin-dependent kinase 4 (Homo sapiens) (UniProt P11802); conditions: Compound concentration 1000.0 nM
[8] = biological target: Macrophage colony-stimulating factor 1 receptor (Homo sapiens) (UniProt P07333); conditions: Compound concentration 1000.0 nM
[9] = biological target: Casein kinase I isoform gamma-2 (Homo sapiens) (UniProt P78368); conditions: Compound concentration 1000.0 nM
[10] = biological target: Mitogen-activated protein kinase 1 (Homo sapiens) (UniProt P28482); conditions: Compound concentration 1000.0 nM
[11] = system: Receptor-type tyrosine-protein kinase FLT3 (Homo sapiens), P36888 [K663Q]; conditions: Compound concentration 1000.0 nM
[12] = biological target: Receptor-type tyrosine-protein kinase FLT3 (Homo sapiens) (UniProt P36888); conditions: Compound concentration 1000.0 nM
[13] = biological target: Tyrosine-protein kinase FRK (Homo sapiens) (UniProt P42685); conditions: Compound concentration 1000.0 nM
[14] = system: eIF-2-alpha kinase GCN2 (Homo sapiens), Q9P2K8 [S808G]; conditions: Compound concentration 1000.0 nM
[15] = biological target: Glycogen synthase kinase-3 beta (Homo sapiens) (UniProt P49841); conditions: Compound concentration 1000.0 nM
[16] = biological target: Mitogen-activated protein kinase 8 (Homo sapiens) (UniProt P45983); conditions: Compound concentration 1000.0 nM
[17] = biological target: Leukocyte tyrosine kinase receptor (Homo sapiens) (UniProt P29376); conditions: Compound concentration 1000.0 nM
[18] = biological target: Dual specificity mitogen-activated protein kinase kinase 3 (Homo sapiens) (UniProt P46734); conditions: Compound concentration 1000.0 nM
[19] = system: Hepatocyte growth factor receptor (Homo sapiens), P08581 [M1250T]; conditions: Compound concentration 1000.0 nM
[20] = biological target: Mitogen-activated protein kinase kinase kinase 10 (Homo sapiens) (UniProt Q02779); conditions: Compound concentration 1000.0 nM
[21] = biological target: Serine/threonine-protein kinase mTOR (Homo sapiens) (UniProt P42345); conditions: Compound concentration 1000.0 nM
[22] = biological target: Serine/threonine-protein kinase NLK (Homo sapiens) (UniProt Q9UBE8); conditions: Compound concentration 1000.0 nM
[23] = system: Phosphatidylinositol 4,5-bisphosphate 3-kinase catalytic subunit alpha isoform (Homo sapiens), P42336 [C420R]; conditions: Compound concentration 1000.0 nM
[24] = biological target: cAMP-dependent protein kinase catalytic subunit beta (Homo sapiens) (UniProt P22694); conditions: Compound concentration 1000.0 nM
[25] = system: Proto-oncogene tyrosine-protein kinase receptor Ret (Homo sapiens), P07949 [M918T]; conditions: Compound concentration 1000.0 nM
[26] = system: Proto-oncogene tyrosine-protein kinase receptor Ret (Homo sapiens), P07949 [V804M]; conditions: Compound concentration 1000.0 nM
[27] = biological target: Receptor-interacting serine/threonine-protein kinase 2 (Homo sapiens) (UniProt O43353); conditions: Compound concentration 1000.0 nM
[28] = biological target: Ribosomal protein S6 kinase alpha-4 (Homo sapiens) (UniProt O75676); conditions: Compound concentration 1000.0 nM
[29] = biological target: Ribosomal protein S6 kinase alpha-3 (Homo sapiens) (UniProt P51812); conditions: Compound concentration 1000.0 nM
[30] = biological target: NUAK family SNF1-like kinase 2 (Homo sapiens) (UniProt Q9H093); conditions: Compound concentration 1000.0 nM
[31] = biological target: SRSF protein kinase 2 (Homo sapiens) (UniProt P78362); conditions: Compound concentration 1000.0 nM
[32] = biological target: Serine/threonine-protein kinase 16 (Homo sapiens) (UniProt O75716); conditions: Compound concentration 1000.0 nM
[33] = biological target: Serine/threonine-protein kinase TAO1 (Homo sapiens) (UniProt Q7L7X3); conditions: Compound concentration 1000.0 nM
[34] = biological target: Dual specificity testis-specific protein kinase 1 (Homo sapiens) (UniProt Q15569); conditions: Compound concentration 1000.0 nM
[35] = biological target: Serine/threonine-protein kinase TNNI3K (Homo sapiens) (UniProt Q59H18); conditions: Compound concentration 1000.0 nM
[36] = biological target: Tyrosine-protein kinase TXK (Homo sapiens) (UniProt P42681); conditions: Compound concentration 1000.0 nM
[37] = biological target: Mitogen-activated protein kinase kinase kinase 19 (Homo sapiens) (UniProt Q56UN5); conditions: Compound concentration 1000.0 nM
[38] = biological target: T1, Muscarinic acetylcholine receptor M1 (Homo sapiens) (UniProt P11229); conditions: Compound concentration 10.0 uM
T1 sequence (whole entry): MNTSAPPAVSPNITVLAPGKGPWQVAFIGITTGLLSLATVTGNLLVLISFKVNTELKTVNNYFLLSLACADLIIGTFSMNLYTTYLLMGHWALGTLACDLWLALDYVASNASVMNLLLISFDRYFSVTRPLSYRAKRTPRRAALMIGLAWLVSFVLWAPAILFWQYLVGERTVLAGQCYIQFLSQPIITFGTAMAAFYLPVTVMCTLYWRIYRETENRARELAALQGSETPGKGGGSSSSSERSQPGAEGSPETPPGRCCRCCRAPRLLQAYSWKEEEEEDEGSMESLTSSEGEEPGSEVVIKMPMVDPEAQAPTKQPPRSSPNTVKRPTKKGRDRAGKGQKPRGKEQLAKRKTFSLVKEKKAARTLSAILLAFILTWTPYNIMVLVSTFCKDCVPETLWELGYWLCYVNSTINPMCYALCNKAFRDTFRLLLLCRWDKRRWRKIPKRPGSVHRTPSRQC

Rattus norvegicus = species: Rattus norvegicus; conditions: Compound concentration 10.0 uM

Sequence of Ribosomal protein S6 kinase alpha-4 (Homo sapiens) (O75676 whole entry, looked up): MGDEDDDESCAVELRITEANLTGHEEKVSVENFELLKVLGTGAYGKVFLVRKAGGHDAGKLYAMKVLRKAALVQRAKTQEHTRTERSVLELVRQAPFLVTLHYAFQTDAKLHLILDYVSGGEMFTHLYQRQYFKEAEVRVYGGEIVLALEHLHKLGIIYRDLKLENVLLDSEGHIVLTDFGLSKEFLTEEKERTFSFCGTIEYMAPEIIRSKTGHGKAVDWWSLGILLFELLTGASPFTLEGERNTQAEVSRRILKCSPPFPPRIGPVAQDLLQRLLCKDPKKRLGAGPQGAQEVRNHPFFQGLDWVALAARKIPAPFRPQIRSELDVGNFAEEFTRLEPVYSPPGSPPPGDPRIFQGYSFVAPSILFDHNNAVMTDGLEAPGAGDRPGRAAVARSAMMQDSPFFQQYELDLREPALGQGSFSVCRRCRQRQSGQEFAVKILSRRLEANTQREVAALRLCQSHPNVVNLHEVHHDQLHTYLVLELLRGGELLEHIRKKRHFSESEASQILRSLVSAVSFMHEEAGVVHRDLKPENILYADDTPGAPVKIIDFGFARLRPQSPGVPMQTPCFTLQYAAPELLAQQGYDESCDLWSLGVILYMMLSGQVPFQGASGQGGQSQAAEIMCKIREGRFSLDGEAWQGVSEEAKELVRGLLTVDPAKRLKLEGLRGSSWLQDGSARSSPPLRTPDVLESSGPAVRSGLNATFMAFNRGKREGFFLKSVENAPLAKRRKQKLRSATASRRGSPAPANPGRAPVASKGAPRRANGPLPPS
Sequence of Glycogen synthase kinase-3 beta (Homo sapiens) (P49841 whole entry, looked up): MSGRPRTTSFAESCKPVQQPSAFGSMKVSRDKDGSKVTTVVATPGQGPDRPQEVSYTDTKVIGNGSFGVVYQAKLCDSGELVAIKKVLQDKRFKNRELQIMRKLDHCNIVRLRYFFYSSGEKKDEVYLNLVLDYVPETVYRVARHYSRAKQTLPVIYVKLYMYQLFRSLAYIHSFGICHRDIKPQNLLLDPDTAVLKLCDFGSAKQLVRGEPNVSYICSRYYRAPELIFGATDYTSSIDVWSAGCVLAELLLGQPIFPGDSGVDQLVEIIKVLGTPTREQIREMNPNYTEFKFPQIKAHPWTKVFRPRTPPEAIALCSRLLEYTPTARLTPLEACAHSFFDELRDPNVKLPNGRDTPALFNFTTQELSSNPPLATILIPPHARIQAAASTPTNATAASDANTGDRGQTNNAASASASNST
Sequence of NUAK family SNF1-like kinase 2 (Homo sapiens) (Q9H093 whole entry): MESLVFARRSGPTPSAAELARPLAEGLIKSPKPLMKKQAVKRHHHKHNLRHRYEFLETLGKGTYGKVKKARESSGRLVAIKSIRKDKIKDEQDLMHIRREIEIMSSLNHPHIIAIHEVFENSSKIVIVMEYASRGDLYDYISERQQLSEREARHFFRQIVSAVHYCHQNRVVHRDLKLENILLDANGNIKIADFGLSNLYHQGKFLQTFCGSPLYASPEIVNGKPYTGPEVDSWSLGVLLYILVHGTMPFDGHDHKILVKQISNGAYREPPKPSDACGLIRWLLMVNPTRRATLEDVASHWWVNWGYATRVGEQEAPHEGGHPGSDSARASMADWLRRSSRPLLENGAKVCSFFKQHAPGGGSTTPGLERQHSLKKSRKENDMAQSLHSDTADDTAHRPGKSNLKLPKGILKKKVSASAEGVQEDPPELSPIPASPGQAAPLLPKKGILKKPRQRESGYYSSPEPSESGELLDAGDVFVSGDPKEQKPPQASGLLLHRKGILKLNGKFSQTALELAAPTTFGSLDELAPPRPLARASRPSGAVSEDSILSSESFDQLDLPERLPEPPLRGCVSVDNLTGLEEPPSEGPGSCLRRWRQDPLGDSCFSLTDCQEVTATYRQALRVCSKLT
Sequence of eIF-2-alpha kinase GCN2 (Homo sapiens), Q9P2K8 [S808G] (Q9P2K8 whole entry S808G): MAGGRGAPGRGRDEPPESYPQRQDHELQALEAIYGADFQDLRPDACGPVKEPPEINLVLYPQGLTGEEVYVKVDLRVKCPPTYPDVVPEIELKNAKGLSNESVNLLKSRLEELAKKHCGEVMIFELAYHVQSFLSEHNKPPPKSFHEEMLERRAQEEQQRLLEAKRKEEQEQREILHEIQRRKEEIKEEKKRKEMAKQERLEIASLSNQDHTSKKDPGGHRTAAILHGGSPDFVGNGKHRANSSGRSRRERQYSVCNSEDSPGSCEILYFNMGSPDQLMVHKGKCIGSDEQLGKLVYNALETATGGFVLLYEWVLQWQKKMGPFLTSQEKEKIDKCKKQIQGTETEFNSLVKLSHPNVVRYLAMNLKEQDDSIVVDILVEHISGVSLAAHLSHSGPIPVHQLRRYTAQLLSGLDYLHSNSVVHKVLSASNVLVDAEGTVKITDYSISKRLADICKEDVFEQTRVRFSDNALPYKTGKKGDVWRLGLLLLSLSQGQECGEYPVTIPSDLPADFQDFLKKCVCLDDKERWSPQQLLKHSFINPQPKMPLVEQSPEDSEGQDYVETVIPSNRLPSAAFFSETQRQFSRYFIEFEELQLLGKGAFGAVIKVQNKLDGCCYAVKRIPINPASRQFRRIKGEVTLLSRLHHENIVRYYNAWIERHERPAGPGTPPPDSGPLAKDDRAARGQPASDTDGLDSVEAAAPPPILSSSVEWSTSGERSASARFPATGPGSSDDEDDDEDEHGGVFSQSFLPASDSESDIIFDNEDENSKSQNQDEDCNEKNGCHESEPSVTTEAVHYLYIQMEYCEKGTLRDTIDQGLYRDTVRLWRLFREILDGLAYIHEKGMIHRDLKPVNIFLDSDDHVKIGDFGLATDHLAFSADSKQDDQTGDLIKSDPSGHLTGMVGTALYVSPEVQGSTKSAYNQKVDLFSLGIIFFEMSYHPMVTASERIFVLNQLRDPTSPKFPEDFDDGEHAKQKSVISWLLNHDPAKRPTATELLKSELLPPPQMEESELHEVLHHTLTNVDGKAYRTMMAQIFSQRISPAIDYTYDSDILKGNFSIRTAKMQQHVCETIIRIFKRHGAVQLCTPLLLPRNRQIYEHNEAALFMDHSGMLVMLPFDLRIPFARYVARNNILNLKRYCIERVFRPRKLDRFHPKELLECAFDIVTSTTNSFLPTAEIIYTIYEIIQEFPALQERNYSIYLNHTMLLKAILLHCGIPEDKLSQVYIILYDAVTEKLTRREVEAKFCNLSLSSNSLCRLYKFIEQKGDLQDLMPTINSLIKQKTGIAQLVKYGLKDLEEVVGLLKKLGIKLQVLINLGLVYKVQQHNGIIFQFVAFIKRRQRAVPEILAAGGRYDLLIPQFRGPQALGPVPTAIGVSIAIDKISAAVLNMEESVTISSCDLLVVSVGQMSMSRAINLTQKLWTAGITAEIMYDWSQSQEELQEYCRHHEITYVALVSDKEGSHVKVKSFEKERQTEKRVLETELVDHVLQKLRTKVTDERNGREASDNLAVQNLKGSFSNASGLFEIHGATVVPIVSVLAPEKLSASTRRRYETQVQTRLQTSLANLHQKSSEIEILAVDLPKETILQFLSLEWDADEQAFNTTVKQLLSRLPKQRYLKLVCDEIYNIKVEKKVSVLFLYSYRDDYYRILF
Sequence of Macrophage colony-stimulating factor 1 receptor (Homo sapiens) (P07333 whole entry, canonical isoform): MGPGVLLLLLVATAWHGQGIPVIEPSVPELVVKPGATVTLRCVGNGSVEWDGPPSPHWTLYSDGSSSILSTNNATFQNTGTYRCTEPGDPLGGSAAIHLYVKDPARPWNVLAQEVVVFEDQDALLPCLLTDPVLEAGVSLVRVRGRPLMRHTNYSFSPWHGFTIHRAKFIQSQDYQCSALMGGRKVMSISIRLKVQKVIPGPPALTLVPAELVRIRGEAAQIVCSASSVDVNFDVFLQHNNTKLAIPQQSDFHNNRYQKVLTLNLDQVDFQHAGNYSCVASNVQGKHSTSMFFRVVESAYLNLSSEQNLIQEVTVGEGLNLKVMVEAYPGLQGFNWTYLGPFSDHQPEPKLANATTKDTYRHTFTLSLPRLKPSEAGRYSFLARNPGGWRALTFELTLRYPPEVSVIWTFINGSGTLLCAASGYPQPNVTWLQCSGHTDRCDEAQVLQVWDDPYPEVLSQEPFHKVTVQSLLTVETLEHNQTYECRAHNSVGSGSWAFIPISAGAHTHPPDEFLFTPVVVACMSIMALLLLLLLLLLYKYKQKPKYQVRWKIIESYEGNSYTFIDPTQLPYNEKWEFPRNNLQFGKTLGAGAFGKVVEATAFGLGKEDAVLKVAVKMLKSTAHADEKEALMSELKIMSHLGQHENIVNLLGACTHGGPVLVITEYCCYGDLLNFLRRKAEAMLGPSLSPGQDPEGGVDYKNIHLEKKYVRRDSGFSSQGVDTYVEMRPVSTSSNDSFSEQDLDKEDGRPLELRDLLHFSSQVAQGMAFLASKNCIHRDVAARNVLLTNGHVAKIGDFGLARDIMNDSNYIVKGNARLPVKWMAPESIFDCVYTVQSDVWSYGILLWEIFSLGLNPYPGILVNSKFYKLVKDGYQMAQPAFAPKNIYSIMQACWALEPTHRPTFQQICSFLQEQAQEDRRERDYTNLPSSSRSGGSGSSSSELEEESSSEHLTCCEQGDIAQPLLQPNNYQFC
Sequence of Calcium/calmodulin-dependent protein kinase type 1B (Homo sapiens) (Q6P2M8 whole entry): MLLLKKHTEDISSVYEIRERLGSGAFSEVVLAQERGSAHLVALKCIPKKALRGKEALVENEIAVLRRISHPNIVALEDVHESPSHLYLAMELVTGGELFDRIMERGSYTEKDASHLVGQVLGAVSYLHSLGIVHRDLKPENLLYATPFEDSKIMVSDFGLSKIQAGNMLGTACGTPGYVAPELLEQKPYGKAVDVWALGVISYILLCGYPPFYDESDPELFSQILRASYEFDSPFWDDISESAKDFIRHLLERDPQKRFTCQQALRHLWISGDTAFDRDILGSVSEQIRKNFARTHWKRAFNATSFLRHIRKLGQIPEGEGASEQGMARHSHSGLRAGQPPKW

N#CC1(c2ccccn2)CCN(Cc2cc(C(=O)O)c(=O)n3ccccc23)CC1 [MSD-M1PAM]
residual activity [1]: 97% | residual activity [2]: 100% | residual activity [3]: 100% | residual activity [4]: 100% | residual activity [5]: 100% | residual activity [6]: 100% | residual activity [7]: 100% | residual activity [8]: 95% | residual activity [9]: 91% | residual activity [10]: 100% | residual activity [11]: 100% | residual activity [12]: 80% | residual activity [13]: 100% | residual activity [14]: 100% | residual activity [15]: 100% | residual activity [16]: 85% | residual activity [17]: 100% | residual activity [18]: 73% | residual activity [19]: 96% | residual activity [20]: 97% | residual activity [21]: 90% | residual activity [22]: 100% | residual activity [23]: 97% | residual activity [24]: 92% | residual activity [25]: 100% | residual activity [26]: 92% | residual activity [27]: 92% | residual activity [28]: 65% | residual activity [29]: 81% | residual activity [30]: 77% | residual activity [31]: 100% | residual activity [32]: 100% | residual activity [33]: 100% | residual activity [34]: 100% | residual activity [35]: 100% | residual activity [36]: 100% | residual activity [37]: 77% | inhibition [38]: -1% | inhibition (Rattus norvegicus): 7.88%

N#CC1(c2ccccn2)CCN(Cc2cc(C(=O)N3CCCC3)c(=O)n3ccccc23)CC1
residual activity [1]: 75% | residual activity [2]: 100% | residual activity [3]: 100% | residual activity [4]: 90% | residual activity [5]: 100% | residual activity [6]: 100% | residual activity [7]: 100% | residual activity [8]: 94% | residual activity [9]: 76% | residual activity [10]: 98% | residual activity [11]: 30% | residual activity [12]: 98% | residual activity [13]: 80% | residual activity [14]: 78% | residual activity [15]: 100% | residual activity [16]: 96% | residual activity [17]: 90% | residual activity [18]: 81% | residual activity [19]: 80% | residual activity [20]: 100% | residual activity [21]: 58% | residual activity [22]: 92% | residual activity [23]: 87% | residual activity [24]: 54% | residual activity [25]: 88% | residual activity [26]: 95% | residual activity [27]: 83% | residual activity [28]: 100% | residual activity [29]: 60% | residual activity [30]: 100% | residual activity [31]: 84% | residual activity [32]: 100% | residual activity [33]: 100% | residual activity [34]: 90% | residual activity [35]: 89% | residual activity [36]: 91% | residual activity [37]: 100% | inhibition [38]: -2.01% | inhibition (Rattus norvegicus): 46.5%
